Tests used:
[1] = test system: sorbitol accumulation in the sciatic nerve; experiment: Inhibition of sorbitol accumulation in the sciatic nerve of streptozotocinized (diabetic) rats; format: in vivo; conditions: oral at 4, 8 and 24 h after streptozotocin, rat sciatic nerve, 27 h after induction of diabetes
Experimental: Some of the Examples of derivatives prepared above were also tested for their ability to reduce or inhibit sorbitol accumulation in the sciatic nerve of streptozotocinized (i.e., diabetic) rats essentially by the procedure described in U.S. Pat. No. 3,821,383. In the present study, the amount of sorbitol accumulation in the sciatic nerves was measured 27 hours after induction of diabetes. The compounds were administered orally at the dose level indicated at 4, 8 and 24 hours following the administration of streptozotocin. The results obtained in this manner are presented in terms of percent inhibition (%) afforded by the test compound compared to the control where no compound was administered (i.e., the untreated animal where sorbitol levels normally rise from approximately […] tissue to as high as […] tissue in the 27-hour test period).

aldose reductase = biological target: T1, aldose reductase (Bos taurus, UniProt P16116); experiment: Aldose reductase inhibitory activity; format: biochemical, calf lens (partially purified enzyme); conditions: partially purified aldose reductase from calf lens; read-out: 50% Inhibitory Concentration
T1 construct: partially purified aldose reductase enzyme obtained from calf lens; from tissue; host or cells: calf lens
Experimental: The derivatives prepared in Examples 1-6 were tested for their ability to reduce or inhibit aldose reductase enzyme activity, following the procedure described in U.S. Pat. No. 3,821,383 and based on the procedure of Hayman et. al., Journal of Biological Chemistry, 240, 877 (1965). The substrate employed was partially purified aldose reductase enzyme obtained from calf lens. The drug was tested to determine the concentration that would cause 50 percent inhibition of enzyme activity.

| IC50 (aldose reductase) | Compound | % Inhibition (sorbitol accumulation) ([1]; 25 mg./kg. t.i.d.) | % Inhibition (sorbitol accumulation) ([1]; 10 mg./kg. t.i.d.) | % Inhibition (sorbitol accumulation) ([1]; 1.5 mg./kg. t.i.d.) |
| --- | --- | --- | --- | --- |
| > 100 µM | O=C1NC(=O)C2(N1)c1ccccc1CCC2c1ccccc1 (stereo not shown) [Example 1, 1',2',3',4'-tetrahydro-3'-phenyl-spiro[imidazolidine-4,4'-naphthalene]-2,5-dione] | 18% | – | – |
| 100 µM | O=C1NC(=O)C2(CCC(c3ccccc3)c3ccccc32)N1 (stereo not shown) [Example 2, 1',2',3',4'-tetrahydro-1'-phenyl-spiro[imidazolidine-4,4'-naphthalene]-2,5-dione] | 27% | – | – |
| 1 µM | O=C1NC(=O)C2(CCOc3c(-c4ccccc4)cccc32)N1 (stereo not shown) [Example 4, 8'-phenyl-spiro[imidazolidine-4,4'-chroman]-2,5-dione] | – | 54% | – |
| 10 µM | O=C1NC(=O)C2(CCOc3ccc(Oc4ccccc4)cc32)N1 (stereo not shown) [Example 5, 6'-phenoxy-spiro[imidazolidine-4,4'-chroman]-2,5-dione] | – | – | 0% |
| – | O=C1NC(=O)C2(CCOc3ccc(-c4ccccc4)cc32)N1 (stereo not shown) [Example 3, 6'-phenyl-spiro[imidazolidine-4,4'-chroman]-2,5-dione] | – | – | 0% |
| 10 µM | O=C1NC(=O)C2(CCOc3c(Cl)cc(-c4ccccc4)cc32)N1 (stereo not shown) [Example 6, 8'-chloro-6'-phenyl-spiro[imidazolidine-4,4'-chroman]-2,5-dione] | – | – | – |

Source: patent US4181729A, “Phenyl or phenoxy substituted spiro-imidazolidinedione derivatives” (Pfizer Inc., priority 1979, dated 1980)
